Laboratory results published in patent US20220349825A1, “METHOD AND DEVICE FOR MEASURING CELL CONTRACTILITY” (THE ROYAL INSTITUTION FOR THE ADVANCEMENT OF …, priority 2021, published 2022).

Tested on: NIH-3T3 fibroblast cells
Experiment: time-dependent coverage-based (PaCS) measurement of cellular forces of fibroblasts on square patterns on 12 kPa PDMS, compared with TFM
Format: cell-based, mouse
Details: 2 μM Cytochalasin D at end of 18 hours measurement; square patterns ~2400 μm^2; 12 kPa PDMS substrate
Procedure: The ability of the coverage-based technique to resolve time-dependent work was further tested. Fibroblast cellular forces on square patterns (˜2400 μm^2) on PDMS substrates (12 kPa) for 18 hours were measured; to further test the sensitivity of this technique the cellular forces was inhibited by depolymerizing actin using Cytochalasin D (Cyto D) in the last few hours of measurement. Using time-dependent coverage-based technique, cellular forces with time was measured when compared to TFM measurements, even after the Cyto D treatment, as presented in FIGS. 9c and 9d. […] Also the low strain energy values of ˜0.1 pJ indicate minimum resolution of the measurement on 12 kPa PDMS substrate. […]
After 16-18 hours of cell seeding, cells were stained with cell tracker green CMFDA (Thermofisher) to detect cell boundaries, and the plates were transferred to a lab-built heated stage perfused with 5% CO2 and mounted on a confocal microscope (Leica TCS SP8 with a 10×0.4 NA objective). With this setup, cells were imaged with transmission and fluorescence microscopy for extended periods, while maintaining a controlled culture environment
In PaCS, cells are confined on adhesive micropatterns of known area on linearly elastic silicone substrates. […] First, the deformed and undeformed pattern area are measured by thresholding the fluorescent pattern images. […]

## C=C1[C@@H](C)[C@H]2[C@H](Cc3ccccc3)NC(=O)[C@]23[C@H](OC(C)=O)/C=C/[C@@](C)(O)C(=O)[C@@H](C)C/C=C/[C@H]3[C@@H]1O [Cytochalasin D]
  cellular force (contractility) after drug treatment: decreased cellular force
  pattern area after drug treatment: increased pattern area
